Test results from patent US7816328B2, “Substituted fused heterocyclic C-glycosides” (Janssen Pharmaceutica NV, priority 2003, dated 2010).

What was measured:
human SGLT2 = target: T1, human SGLT2 (Homo sapiens, UniProt P31639); assay: Cell-based assay for sodium-dependent glucose transport (14C-AMG uptake), CHO-K1 cells stably expressing human SGLT2; settings: Na-dependent 14C-AMG uptake; for IC50: read-out: CHOK-SGLT2 IC50; for inhibition at 10 µM: read-out: CHOK-SGLT2 % Inh at 10 uM
T1 construct: expressed in transfected cells; host or cells: CHO-K1
T1 sequence (P31639 1-672): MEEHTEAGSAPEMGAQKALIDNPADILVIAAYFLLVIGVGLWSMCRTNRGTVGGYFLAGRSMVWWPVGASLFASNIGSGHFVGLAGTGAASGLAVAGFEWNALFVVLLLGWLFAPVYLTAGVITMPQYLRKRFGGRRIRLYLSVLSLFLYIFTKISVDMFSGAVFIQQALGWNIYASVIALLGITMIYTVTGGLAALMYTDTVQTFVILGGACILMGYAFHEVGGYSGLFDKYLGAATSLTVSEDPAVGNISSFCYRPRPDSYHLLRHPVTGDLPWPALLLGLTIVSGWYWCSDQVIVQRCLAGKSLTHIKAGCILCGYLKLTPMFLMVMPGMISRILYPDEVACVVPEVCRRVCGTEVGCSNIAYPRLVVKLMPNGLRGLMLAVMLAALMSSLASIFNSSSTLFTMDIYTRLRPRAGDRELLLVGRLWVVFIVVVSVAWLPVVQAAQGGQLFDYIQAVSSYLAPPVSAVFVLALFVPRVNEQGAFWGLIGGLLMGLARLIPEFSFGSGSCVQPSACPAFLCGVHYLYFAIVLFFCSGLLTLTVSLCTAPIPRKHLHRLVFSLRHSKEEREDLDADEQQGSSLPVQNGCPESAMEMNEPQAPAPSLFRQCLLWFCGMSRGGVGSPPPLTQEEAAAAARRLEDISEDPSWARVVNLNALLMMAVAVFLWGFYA
Experimental: (§1) Cloning of the human SGLT1 and human SGLT2 cDNAs and construction of the mammalian expression vector: The human SGLT1 cDNA (Genbank M24847) was cloned from human small intestine. Human SGLT2 cDNA (Genbank M95549) was cloned from human kidney. Both full cDNAs were subcloned into pcDNA and sequenced to verify the integrity of the construct.
(§2) Generation of CHO-K1 cells stably expressing human SGLT1 or human SGLT2: Transfection of CHO-K1 cells was performed using DMRIE-C reagent (Life Technologies, Gaithersburg, Md.). Transfectants were then selected in the presence of the antibiotic G418 (Gibco-BRL, Grand Island, N.Y.) at 400 μg/ml. Individual clones were then characterized using the functional assay described below.
(§3) Cell-based assay for sodium-dependent glucose transport: Cell lines stably expressing human SGLT1 or SGLT2 were then used for functional analysis of Na+-dependent glucose uptake. Briefly, cells were plated at a density of 65,000 cells per well in a 96-well plate and allowed to grow for 48 hours. Cells were subsequently washed one time with Assay Buffer (50 mM HEPES pH 7.4, 20 mM Tris, 5 mM KCl, 1 mM MgCl2, 1 mM CaCl2 and 137 mM NaCl) and treated with compound in the absence or presence of NaCl for 15 minutes. Cells were then labeled with ^14C-α-methylglucopyranoside (AMG, Sigma, St. Louis, Mo.) a non-metabolizable glucose analog specific for sodium-dependent glucose transporters as previously described (Peng, H. and Lever J. E. Post-transcriptional regulation of Na^+/glucose cotransporter (SGLT1) gene expression in LLC-PK1 cells. J Biol Chem 1995; 270:20536-20542). After 2 hours the labelled cells were washed three times with ice-cold PBS. After aspiration, cells were solubilized using Microscint 20 (Packard, Meriden, Conn.) and Na-dependent ^14C-AMG uptake was quantified by measuring radioactivity.
(§4) Plates were counted in a TopCount (Packard, Meriden, Conn.). Results are reported as the % inhibition or IC50 value from a representative experiment. Variability for the functional assay was typically within 20%.

human SGLT1 = target: T2, human SGLT1 (Homo sapiens, UniProt P13866); assay: Cell-based assay for sodium-dependent glucose transport (14C-AMG uptake), CHO-K1 cells stably expressing human SGLT1; settings: Na-dependent 14C-AMG uptake
T2 construct: expressed in transfected cells; host or cells: CHO-K1
T2 sequence (P13866 1-664): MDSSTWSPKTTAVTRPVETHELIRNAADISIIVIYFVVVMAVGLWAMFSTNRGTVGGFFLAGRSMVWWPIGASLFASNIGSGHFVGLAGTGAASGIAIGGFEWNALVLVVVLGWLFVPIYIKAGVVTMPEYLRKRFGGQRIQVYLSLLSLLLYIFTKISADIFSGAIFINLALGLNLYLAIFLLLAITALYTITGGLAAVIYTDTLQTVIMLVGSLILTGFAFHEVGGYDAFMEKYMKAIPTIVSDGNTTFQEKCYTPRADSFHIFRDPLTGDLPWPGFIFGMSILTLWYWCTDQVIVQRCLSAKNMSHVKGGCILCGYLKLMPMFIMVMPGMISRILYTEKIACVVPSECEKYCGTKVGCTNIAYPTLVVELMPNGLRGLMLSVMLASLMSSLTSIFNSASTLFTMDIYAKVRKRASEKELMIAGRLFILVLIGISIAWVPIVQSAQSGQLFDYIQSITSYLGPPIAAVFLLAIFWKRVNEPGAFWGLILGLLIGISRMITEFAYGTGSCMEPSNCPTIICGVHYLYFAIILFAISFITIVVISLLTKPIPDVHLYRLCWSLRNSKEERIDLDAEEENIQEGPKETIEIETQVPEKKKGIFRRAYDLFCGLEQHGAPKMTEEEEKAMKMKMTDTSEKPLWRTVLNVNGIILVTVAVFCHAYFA
Experimental: as §1, §2, §3, §4

Row | IC50 (human SGLT2) | CHOK-SGLT1 IC50 (uM) (human SGLT1) | inhibition at 10 µM (human SGLT2) | Structure (SMILES)
1 | 132 ± 24 nM | inactive |  | CCc1ccc(Cc2c[nH]c3ccc([C@@H]4O[C@H](CO)[C@@H](O)[C@H](O)[C@H]4O)cc23)cc1 [Example 1, 3-(4-Ethylbenzyl)-5-(β-D-glucopyranosyl)-1H-indole]
2 | 1390 ± 67 nM | inactive |  | COc1ccc(Cc2c[nH]c3ccc([C@@H]4O[C@H](CO)[C@@H](O)[C@H](O)[C@H]4O)cc23)cc1 [Example 2, 5-(β-D-Glucopyranosyl)-3-(4-methoxybenzyl)-1H-indole]
3 |  | inactive | 60% | COc1ccc(CCc2c[nH]c3ccc([C@@H]4O[C@H](CO)[C@@H](O)[C@H](O)[C@H]4O)cc23)cc1 [Example 3, 5-(β-D-Glucopyranosyl)-3-[2-(4-methoxyphenyl)-ethyl]-1H-indole]
4 |  | inactive | 12% | CCc1ccc(Cc2c[nH]c3cccc([C@@H]4O[C@H](CO)[C@@H](O)[C@H](O)[C@H]4O)c23)cc1 [Example 4, 3-(4-Ethylbenzyl)-4-(β-D-glucopyranosyl)-1H-indole]
